# Measurements reported in US20100221200A1, “COMPOSITIONS AND METHODS FOR SKIN CARE” (THE OHIO STATE UNIVERSITY RESEARCH FOUNDATION, priority 2007, published 2010).
# Square brackets hold non-standard residues; d marks the D form. Peptide text beside a SMILES is read from it.
# How the values were obtained:
# [1] = tested on: summer-active ground squirrels; details: administered to summer-active ground squirrels; cited from earlier work
# [2] = tested on: isolated or transplanted organs including heart, lung and kidneys; details: cited from earlier work
# [3] = tested on: skin of the malar surface of the face; test: Blinded split-face topical application of deltorphin cream: skin appearance and wrinkles; assay type: in vivo
# Method: (§1) A test subject (body weight ˜71 kg) received an application of 10 μg deltorphin, constituted in an inert base, to the malar surface on the left side of the face extending from the periorbital region to the mandible. The inert base (without the deltorphin) was applied to the right side of the face but the subject was blind to which cream contained the deltorphin. The cream was applied twice daily, in the morning and night. After 3 weeks, the subject was observed.
# A test subject (˜55 kg) received an application of 1 μg of deltorphin in an inert base to the malar surface of the right side of the face, with an identical inert cream applied to the left in a blinded fashion (the subject was unaware of which cream contained the active peptide). After three weeks of morning and evening application of the cream (no other topical agents were applied), the subject was scored for appearance.
# (§2) A test subject (˜61 kg) received an application of 100 μg of deltorphin in an inert base to the malar surface on the right side, with an equal amount of inert base, but no active peptide, applied blindly to the left side of the face. The two creams were applied twice daily, morning and night, for three weeks prior to being observed.
# [4] = tested on: skin of the malar surface of the face; test: Blinded split-face topical application of deltorphin cream: local tolerance (irritation, allergy); assay type: in vivo
# Method: as §1, §2
# [5] = Example 1: subject, 10 μg deltorphin in inert base, twice daily, 3 weeks
# [6] = Example 3: subject, 100 μg deltorphin in inert base, twice daily, three weeks
compound,measurement,setting,value
"CC(C)C[C@@H](NC(=O)[C@H](Cc1ccccc1)NC(=O)CNC(=O)[C@@H](C)NC(=O)[C@@H](N)Cc1ccc(O)cc1)C(=O)O [DADLE, Tyr-D-Ala-Gly-Phe-D-Leu]",induction of hibernation,[1],induces hibernation
same,viability and preservation of organs,[2],improves the viability and preservation
"CSCC[C@H](NC(=O)[C@H](CC(C)C)NC(=O)[C@H](Cc1c[nH]cn1)NC(=O)[C@H](Cc1ccccc1)NC(=O)[C@@H](CCSC)NC(=O)[C@@H](N)Cc1ccc(O)cc1)C(=O)N[C@@H](CC(=O)O)C(N)=O [deltorphin, Tyr-D-Met-Phe-His-Leu-Met-Asp-NH2] (H-Y[dM]FHLMD-NH2)",appearance of treated side of the face versus inert-base side,"[3]; Example 1: subject, 10 μg deltorphin in inert base, left side, twice daily, 3 weeks",noticeable improved appearance
same,wrinkles (fine and moderate),[3]; [5],appeared diminished
same,"wrinkles, particularly in the periorbital region","[3]; Example 2: subject, 1 μg deltorphin in inert base, morning and evening, three weeks",marked reduction in wrinkles
same,appearance of treated side of the face versus inert-base side,"[3]; Example 2: subject, 1 μg deltorphin in inert base, right side, morning and evening, three weeks",noticeable difference was apparent
same,appearance of treated side of the face versus inert-base side,"[3]; Example 3: subject, 100 μg deltorphin in inert base, right side, twice daily, three weeks",significant and visible improvements
same,wrinkles (fine and deep),[3]; [6],readily notable improvements and diminishment in wrinkles
"CSCC[C@H](NC(=O)[C@H](CC(C)C)NC(=O)[C@H](Cc1cnc[nH]1)NC(=O)[C@H](Cc1ccccc1)NC(=O)[C@@H](CCSC)NC(=O)[C@@H](N)Cc1ccc(O)cc1)C(=O)N[C@@H](CC(=O)O)C(N)=O [deltorphin, Tyr-D-Met-Phe-His-Leu-Met-Asp-NH2] (H-Y[dM]FHLMD-NH2)","signs of irritation, redness, heat or swelling",[4]; [5],"no sign of any irritation, no redness, heat or swelling"
same,eye irritation after inadvertent contact of the cream with the eye,"[4]; Example 3: subject, 100 μg deltorphin cream, one occasion, subject's report",without any significant eye irritation or redness
same,"signs of allergy, hypersensitivity or irritation (redness, swelling, heat, pruritus)",[4]; [6],"no signs of any allergy, hypersensitivity or irritation"
